Patent publication US7253158B2, “Sulfonamides” (Hoffmann-La Roche Inc., priority 2004, dated 2007)

Target: T1, γ-secretase (Homo sapiens, UniProt P49768)
T1 construct: uses a HEK293 membrane fraction as a source of γ-secretase; endogenous in cells; host or cells: HEK293 (microsomal membrane fraction, solubilised in 0.25% CHAPSO)
Experiment: in vitro γ-secretase assay (HEK293 membrane fraction, recombinant APP substrate, Abeta ELISA)
Type: biochemical
Details: γ-secretase inhibition
From the text: Description of γ-Secretase Assay
The activity of test compounds can be evaluated in assays which measure the proteolytic cleavage of suitable substrates by γ-secretase activity. These can be cellular assays where e.g., a substrate of the γ-secretase is fused in its cytoplasmic domain to a transcription factor. Cells are transfected with this fusion gene and a reporter gene, e.g., firefly luciferase, which expression is enhanced by the transcription factor. Cleavage of the fused substrate by γ-secretase will lead to expression of the reporter gene which can be monitored in appropriate assays. The γ-secretase activity can also be determined in cell-free in vitro asays where e.g., a cell lysate containing the γ-secretase complex is incubated with a suitable APP-derived substrate which is cleaved to the Abeta peptides. The amount of produced peptides can be determined with specific ELISA assays. Cell lines of neuronal origin secrete Abeta peptides which can be measured with the specific ELISA assay. Treatment with compounds which inhibit γ-secretase leads to a reduction of secreted Abeta thus providing a measure of inhibition.
The in vitro assay of γ-secretase activity uses a HEK293 membrane fraction as a source of γ-secretase and a recombinant APP substrate. Latter consist of the C-terminal 100 amino acids of human APP fused to a 6× Histidin tail for purification which is expressed in E. coli in a regulatable expression vector, e.g. pEt15. This recombinant protein corresponds to the truncated APP fragment which results after […] of the extracellular domain and which constitutes the γ-secretase substrate. […] Hek293 cells are mechanically disrupted and the microsomal fraction is isolated by differential centrifugation.

| IC50 (table head prints none) [nM] | IC50 [nM] | SMILES |
| --- | --- | --- |
| 150 |  | COc1ccc(CN(C2CCCCNC2=O)S(=O)(=O)c2ccc(Br)cc2)cc1F (racemic) [Example 28, rac-4-Bromo-N-(3-fluoro-4-methoxy-benzyl)-N-(2-oxo-azepan-3-yl)-benzenesulfonamide] |
| 30 |  | CC(C)C1CCNC(=O)C(N(Cc2ccc(C(=O)NC3CC3)cc2)S(=O)(=O)c2ccc(Cl)cc2)C1 (racemic) [Example 43, rac-4-{[(4-Chloro-benzenesulfonyl)-(5-isopropyl-2-oxo-azepan-3-yl)-amino]-methyl}-N-cyclopropyl-benzamide] |
| 130 |  | COC(=O)c1ccc(CN(C2CCCCNC2=O)S(=O)(=O)c2ccc(Cl)cc2)cc1 (racemic) [Example 57, rac-4-{[(4-Chloro-benzenesulfonyl)-(2-oxo-azepan-3-yl)-amino]-methyl}-benzoic acid methyl ester] |
| 190 |  | O=C(NC1CC1)c1ccc(CN(C2CCCCNC2=O)S(=O)(=O)c2ccc(Cl)cc2)cc1 (racemic) [Example 75, rac-4-{[(4-Chloro-benzenesulfonyl)-(2-oxo-azepan-3-yl)-amino]-methyl}-N-cyclopropyl-benzamide] |
| 10 |  | COC(=O)c1ccc(CN(C2CC(C)(C)CCNC2=O)S(=O)(=O)c2ccc(Cl)cc2)cc1 (racemic) [Example 138, Rac-4-{[(4-Chloro-benzenesulfonyl)-(5,5-dimethyl-2-oxo-azepan-3-yl)-amino]-methyl}-benzoic acid methyl ester] |
| 20 |  | CC1(C)CCNC(=O)C(N(Cc2ccc(C(=O)NCCF)cc2)S(=O)(=O)c2ccc(Cl)cc2)C1 (racemic) [Example 140, rac-4-{[(4-Chloro-benzenesulfonyl)-(5,5-dimethyl-2-oxo-azepan-3-yl)-amino]-methyl}-N-(2-fluoro-ethyl)-benzamide] |
| 20 |  | CC1(C)CCNC(=O)C(N(Cc2ccc(C(=O)NCC(F)(F)F)cc2)S(=O)(=O)c2ccc(Cl)cc2)C1 (racemic) [Example 141, rac-4-{[(4-Chloro-benzenesulfonyl)-(5,5-dimethyl-2-oxo-azepan-3-yl)-amino]-methyl}-N-(2,2,2-trifluoro-ethyl)-benzamide] |
| 20 |  | CC1(C)CCNC(=O)C(N(Cc2ccc(C(=O)N[C@@H]3C[C@@H]3F)cc2)S(=O)(=O)c2ccc(Cl)cc2)C1 (mixture of isomers) [Example 142, rac-4-{[(4-Chloro-benzenesulfonyl)-(5,5-dimethyl-2-oxo-azepan-3-yl)-amino]-methyl}-N-((1R,2S)-2-fluoro-cyclopropyl)-benzamide] |
| 40 |  | CC1(C)CCNC(=O)C(N(Cc2ccc(C(=O)NCCO)cc2)S(=O)(=O)c2ccc(Cl)cc2)C1 (racemic) [Example 143, rac-4-{[(4-Chloro-benzenesulfonyl)-(5,5-dimethyl-2-oxo-azepan-3-yl)-amino]-methyl}-N-(2-hydroxy-ethyl)-benzamide] |
| 50 |  | CC1(C)CCNC(=O)C(N(Cc2ccc(C(=O)NC3CCCC3)cc2)S(=O)(=O)c2ccc(Cl)cc2)C1 (racemic) [Example 144, rac-4-{[(4-Chloro-benzenesulfonyl)-(5,5-dimethyl-2-oxo-azepan-3-yl)-amino]-methyl}-N-cyclopentyl-benzamide] |
| 10 |  | CNC(=O)c1ccc(CN(C2CC(C)(C)CCNC2=O)S(=O)(=O)c2ccc(Cl)cc2)cc1 (racemic) [Example 145, rac-4-{[(4-Chloro-benzenesulfonyl)-(5,5-dimethyl-2-oxo-azepan-3-yl)-amino]-methyl}-N-methyl-benzamide] |
| 20 |  | CC1(C)CCNC(=O)C(N(Cc2ccc(C(N)=O)cc2)S(=O)(=O)c2ccc(Cl)cc2)C1 (racemic) [Example 146, rac-4-{[(4-Chloro-benzenesulfonyl)-(5,5-dimethyl-2-oxo-azepan-3-yl)-amino]-methyl}-benzamide] |
| 20 |  | CC1(C)CCNC(=O)C(N(Cc2ccc(C(=O)NCc3ccccc3)cc2)S(=O)(=O)c2ccc(Cl)cc2)C1 (racemic) [Example 147, rac-N-Benzyl-4-{[(4-chloro-benzenesulfonyl)-(5,5-dimethyl-2-oxo-azepan-3-yl)-amino]-methyl}-benzamide] |
| 20 |  | COC(=O)CNC(=O)c1ccc(CN(C2CC(C)(C)CCNC2=O)S(=O)(=O)c2ccc(Cl)cc2)cc1 (racemic) [Example 148, rac-(4-{[(4-Chloro-benzenesulfonyl)-(5,5-dimethyl-2-oxo-azepan-3-yl)-amino]-methyl}-benzoylamino)-acetic acid methyl ester] |
| 150 |  | CC1(C)CCNC(=O)C(N(Cc2ccc(C(=O)NCCN3CCOCC3)cc2)S(=O)(=O)c2ccc(Cl)cc2)C1 (racemic) [Example 149, rac-4-{[(4-Chloro-benzenesulfonyl)-(5,5-dimethyl-2-oxo-azepan-3-yl)-amino]-methyl}-N-(2-morpholin-4-yl-ethyl)-benzamide] |
| 100 |  | CC1(C)CCNC(=O)C(N(Cc2ccc(-c3nn[nH]n3)cc2)S(=O)(=O)c2ccc(Cl)cc2)C1 (racemic) [Example 150, rac-4-Chloro-N-(5,5-dimethyl-2-oxo-azepan-3-yl)-N-[4-(2H-tetrazol-5-yl)-benzyl]-benzenesulfonamide] |
| 20 |  | CC(=O)Nc1ccc(CN(C2CC(C)(C)CCNC2=O)S(=O)(=O)c2ccc(Cl)cc2)cc1 (racemic) [Example 152, rac-N-(4-{[(4-Chloro-benzenesulfonyl)-(5,5-dimethyl-2-oxo-azepan-3-yl)-amino]-methyl}-phenyl)-acetamide] |
| 270 |  | CCOC(=O)CC(=O)Nc1ccc(CN(C2CCCCNC2=O)S(=O)(=O)c2ccc(Cl)cc2)cc1 (racemic) [Example 165, Rac-N-(4-{[(4-Chloro-benzenesulfonyl)-(2-oxo-azepan-3-yl)-amino]-methyl}-phenyl)-malonamic acid ethyl ester] |
| 230 |  | O=C1NCCCCC1N(Cc1ccc(C(F)F)cc1)S(=O)(=O)c1ccc(Cl)cc1 (racemic) [Example 172, Rac-4-Chloro-N-(4-difluoromethyl-benzyl)-N-(2-oxo-azepan-3-yl)-benzenesulfonamide] |
|  | 190 | COC(=O)c1ccc(CN(C2CCCCNC2=O)S(=O)(=O)c2ccc(Cl)cc2)c(F)c1 (racemic) [Example 203, rac-4-{[(4-Chloro-benzenesulfonyl)-(2-oxo-azepan-3-yl)-amino]-methyl}-3-fluoro-benzoic acid methyl ester] |
| 150 |  | NC(=O)c1ccc(CN([C@@H]2CCCCNC2=O)S(=O)(=O)c2ccc(Cl)cc2)cc1 [Example 2, 4-{[(4-Chloro-benzenesulfonyl)-((R)-2-oxo-azepan-3-yl)-amino]-methyl}-benzamide] |
| 260 |  | CC(C)C1CCNC(=O)C(N(Cc2ccc(C(N)=O)cc2)S(=O)(=O)c2ccc(Cl)cc2)C1 (stereo not drawn) [Example 4, 4-{[(4-Chloro-benzenesulfonyl)-(5-isopropyl-2-oxo-azepan-3-yl)-amino]-methyl}-benzamide] |
| 140 |  | COC(=O)c1ccc(CN([C@@H]2CCCCNC2=O)S(=O)(=O)c2ccc(Cl)cc2)c(F)c1 [Example 34, 4-{[(4-Chloro-benzenesulfonyl)-((R)-2-oxo-azepan-3-yl)-amino]-methyl}-3-fluoro-benzoic acid methyl ester] |
| 90 |  | CCOC(=O)c1ccc(CN([C@@H]2CCCCNC2=O)S(=O)(=O)c2ccc(Cl)cc2)cc1 [Example 35, 4-{[(4-Chloro-benzenesulfonyl)-((R)-2-oxo-azepan-3-yl)-amino]-methyl}-benzoic acid ethyl ester] |
| 200 |  | COC(=O)c1ccc(C(C)N([C@@H]2CCCCNC2=O)S(=O)(=O)c2ccc(Cl)cc2)cc1 (stereo partly drawn) [Example 41, 4-{1-[(4-Chloro-benzenesulfonyl)-((R)-2-oxo-azepan-3-yl)-amino]-ethyl}-benzoic acid methyl ester] |
| 80 |  | O=C1NCCCC[C@H]1N(Cc1ccc(-c2ncn[nH]2)cc1F)S(=O)(=O)c1ccc(Cl)cc1 [Example 56, 4-Chloro-N-[2-fluoro-4-(2H-[1,2,4]triazol-3-yl)-benzyl]-N-((R)-2-oxo-azepan-3-yl)-benzenesulfonamide] |
| 120 |  | COc1ccc(CN([C@@H]2CCCCNC2=O)S(=O)(=O)c2ccc(Cl)cc2)c(F)c1 [Example 68, 4-Chloro-N-(2-fluoro-4-methoxy-benzyl)-N-((R)-2-oxo-azepan-3-yl)-benzenesulfonamide] |
| 260 |  | O=C(NC1CC1)c1ccc(CN([C@@H]2CCCCNC2=O)S(=O)(=O)c2ccc(C(F)(F)F)cc2)cc1 [Example 106, N-Cyclopropyl-4-{[((R)-2-oxo-azepan-3-yl)-(4-trifluoromethyl-benzenesulfonyl)-amino]-methyl}-benzamide] |
| 290 |  | O=C(NC1CC1)c1ccc(CN([C@@H]2CCCCNC2=O)S(=O)(=O)c2ccc(Br)cc2)cc1 [Example 107, N-Cyclopropyl-4-{[((R)-2-oxo-azepan-3-yl)-(4-bromo-benzenesulfonyl)-amino]-methyl}-benzamide] |
| 280 |  | CC1(C)CCNC(=O)C(N(Cc2ccc(C(=O)NC3CC3)cc2)S(=O)(=O)c2ccc(Cl)cc2)C1 (stereo not drawn) [Example 109, 4-{[(4-Chloro-benzenesulfonyl)-(5,5-dimethyl-2-oxo-azepan-3-yl)-amino]-methyl}-N-cyclopropyl-benzamide] |
